# Source: patent US6796312B2, “Process and apparatus for the removal of toxic components of tobacco smoke and the standardization of the health hazards related to those components” (priority 2001, dated 2004)
# Where “and” joins values, the source holds several entries; their conditions need not be identical. Identical values can stand only once. Like-named read-outs stand apart in the source and are kept apart here.
# Tests used:
# [1] = Non-enzymatic oxidation of NADH2 by aged NDGA solutions
# Procedure: Oxidation of reduced nicotinamide-adenine dinucleotide by nordihydroguaiaretic acid in the presence of PO4 buffer at pH 7.0 occurs at a slow rate, (See Burk and Woods (1963) and references to findings of […]. and […]. reported therein). Although this oxidation was very small under the conditions of experiment, an interaction correction factor was determined and applied to all reduced nicotinamide-adenine dinucleotide-nordihydroguaiaretic acid-mycloperoxidase assay reactions. [table] The effect of aging nordihydroguaiaretic acid solutions (0.5 mg. nordihydroguaiaretic acid dissolved in 0.02 ml. of ethyl alcohol plus 0.98 ml. of 0.15 Molar Na2HPO4.KH2PO4 buffer, pH 7.0) on the oxidation of reduced nicotinamide-adenine dinucleotide by nordihydroguaiaretic acid is shown above in Table VI. At 35° C., the latter undergoes a slow visible auto-oxidation change, from a near colorless solution (the reduced form of the orthoquinone) immediately after preparation, to a yellow brown colloidal suspension (probably the quinone form) with the yellow-brown material tending to precipitate slowly during the course of several hours. The sedimentation of nordihydroguaiaretic acid and its accumulation and adherence upon the inner glass surface of test tubes was avoided by shaking the solution periodically. The slow oxidation of reduced nicotinamide-adenine dinucleotide by nordihydroguaiaretic acid during the first forty-five (45) minutes can be more than twice the rate of subsequent time periods. Once the lowest rate of oxidation of reduced nicotinamide-adenine dinucleotide is achieved by the aging of nordihydroguaiaretic acid solutions, it remains constant for at least eight (8) hours.
# [2] = target: T1, pig heart D-amino acid oxidase (Sus scrofa, UniProt P00371); details: 2.7×10^−3 Molar (160 ppm); cited from earlier work
# T1 construct: host or cells: pig heart (so in the source)
# T1 sequence (P00371 whole entry): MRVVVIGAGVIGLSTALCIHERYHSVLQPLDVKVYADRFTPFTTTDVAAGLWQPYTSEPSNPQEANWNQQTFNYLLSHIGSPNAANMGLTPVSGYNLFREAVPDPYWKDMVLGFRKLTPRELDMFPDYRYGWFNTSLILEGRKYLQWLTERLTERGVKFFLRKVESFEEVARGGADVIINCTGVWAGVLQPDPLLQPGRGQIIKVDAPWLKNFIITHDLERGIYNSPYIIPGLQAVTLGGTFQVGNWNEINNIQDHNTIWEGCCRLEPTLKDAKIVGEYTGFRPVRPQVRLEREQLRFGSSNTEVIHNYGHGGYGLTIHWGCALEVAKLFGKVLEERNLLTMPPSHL
# caries = details: hamsters in vivo; cited from earlier work
# human whole saliva = details: low concentrations; cited from earlier work
# jack bean urease = jack bean urease (Canavalia ensiformis, UniProt P07374); details: cited from earlier work
# jack bean urease, sequence (P07374 whole entry, looked up): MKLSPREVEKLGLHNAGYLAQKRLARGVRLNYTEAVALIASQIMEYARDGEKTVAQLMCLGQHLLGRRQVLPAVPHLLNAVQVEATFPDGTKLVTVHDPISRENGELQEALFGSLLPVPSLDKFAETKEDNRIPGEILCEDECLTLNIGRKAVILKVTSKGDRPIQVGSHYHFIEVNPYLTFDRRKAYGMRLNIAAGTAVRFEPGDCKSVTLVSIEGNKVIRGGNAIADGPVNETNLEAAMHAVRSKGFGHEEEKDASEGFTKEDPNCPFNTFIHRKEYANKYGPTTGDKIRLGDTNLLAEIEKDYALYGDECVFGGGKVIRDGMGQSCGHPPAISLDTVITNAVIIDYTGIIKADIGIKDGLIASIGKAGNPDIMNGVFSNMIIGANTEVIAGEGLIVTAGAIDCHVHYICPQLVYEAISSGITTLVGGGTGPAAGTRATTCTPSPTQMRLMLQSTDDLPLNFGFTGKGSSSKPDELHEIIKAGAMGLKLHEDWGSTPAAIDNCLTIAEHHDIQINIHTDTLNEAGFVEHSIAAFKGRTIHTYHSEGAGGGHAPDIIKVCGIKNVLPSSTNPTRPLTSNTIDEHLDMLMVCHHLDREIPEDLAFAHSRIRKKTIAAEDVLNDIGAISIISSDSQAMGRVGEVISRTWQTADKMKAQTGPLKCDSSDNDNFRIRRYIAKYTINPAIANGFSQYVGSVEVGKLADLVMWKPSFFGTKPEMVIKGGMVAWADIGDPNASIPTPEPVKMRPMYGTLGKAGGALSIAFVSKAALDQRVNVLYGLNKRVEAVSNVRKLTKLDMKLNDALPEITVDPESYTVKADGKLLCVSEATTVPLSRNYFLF
# [3] = target: squash ascorbic acid oxidase (Cucurbita pepo var. melopepo, UniProt P37064); details: cited from earlier work
# squash ascorbic acid oxidase, sequence (P37064 whole entry): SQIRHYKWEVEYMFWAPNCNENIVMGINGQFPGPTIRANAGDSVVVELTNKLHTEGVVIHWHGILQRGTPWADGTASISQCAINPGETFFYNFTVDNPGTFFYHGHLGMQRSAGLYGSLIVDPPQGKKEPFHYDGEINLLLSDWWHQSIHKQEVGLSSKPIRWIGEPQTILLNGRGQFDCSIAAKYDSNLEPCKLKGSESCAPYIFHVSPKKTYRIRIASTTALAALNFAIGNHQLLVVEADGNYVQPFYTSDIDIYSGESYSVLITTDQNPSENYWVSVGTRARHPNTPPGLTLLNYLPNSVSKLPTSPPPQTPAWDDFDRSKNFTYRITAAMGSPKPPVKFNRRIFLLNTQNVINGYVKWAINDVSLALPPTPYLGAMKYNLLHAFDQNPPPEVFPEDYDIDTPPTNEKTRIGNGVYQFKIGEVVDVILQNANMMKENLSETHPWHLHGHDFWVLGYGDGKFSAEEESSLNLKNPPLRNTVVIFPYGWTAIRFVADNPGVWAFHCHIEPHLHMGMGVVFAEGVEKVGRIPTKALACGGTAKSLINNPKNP
# turnip peroxidase = details: 2.7×10^−4 Molar (80 ppm); cited from earlier work
# [4] = test system: Ehrlich carcinoma, Li210 mouse leukemia and other cancer cells; details: in vivo and in vitro; cited from earlier work
# [5] = target: T2, yeast alcohol dehydrogenase (Saccharomyces cerevisiae, UniProt P00330); details: 2.7×10^−4 Molar (80 ppm); cited from earlier work
# T2 sequence (P00330 1-348): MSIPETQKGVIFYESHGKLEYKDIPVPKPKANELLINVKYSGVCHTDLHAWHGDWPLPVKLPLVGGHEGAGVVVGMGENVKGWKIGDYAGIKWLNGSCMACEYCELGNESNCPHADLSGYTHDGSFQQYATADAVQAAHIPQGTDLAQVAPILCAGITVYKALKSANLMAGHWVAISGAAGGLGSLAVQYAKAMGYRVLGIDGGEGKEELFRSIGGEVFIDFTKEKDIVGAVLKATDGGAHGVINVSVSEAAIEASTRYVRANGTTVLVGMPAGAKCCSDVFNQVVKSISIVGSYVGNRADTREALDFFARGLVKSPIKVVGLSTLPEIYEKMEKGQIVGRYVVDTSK
# plant lipoxidase = details: cited from earlier work
# [6] = cited from earlier work
# rat liver cyclophorase = details: 2.7×10^−3 Molar (160 ppm); listed as nordihydroguaiaretic acid; cited from earlier work
smiles,measurement,setting,value
"CC(Cc1ccc(O)c(O)c1)C(C)Cc1ccc(O)c(O)c1 (stereo not drawn) [NDGA, beta, gamma-dimethyl-alpha, ortho-bis (3,4 dihydroxiphenyl) butane]",Rate of Oxidation of NADH2,"[1]; NDGA solution aged 10 minutes at 35° C., pH 7.0, Experiment 3",.017 Optical Density (O.D.) Units per 100 Seconds
same,Rate of Oxidation of NADH2,"[1]; NDGA solution aged 15 minutes, Experiment 2",.020 Optical Density (O.D.) Units per 100 Seconds
same,Rate of Oxidation of NADH2,"[1]; NDGA solution aged 45 minutes, Experiment 1",.027 Optical Density (O.D.) Units per 100 Seconds
same,Rate of Oxidation of NADH2,"[1]; NDGA solution aged 60 minutes, Experiment 3",.013 Optical Density (O.D.) Units per 100 Seconds
same,Rate of Oxidation of NADH2,"[1]; NDGA solution aged 110 minutes, Experiment 1",.011 Optical Density (O.D.) Units per 100 Seconds
same,Rate of Oxidation of NADH2,"[1]; NDGA solution aged 120 minutes, Experiment 3",.011 Optical Density (O.D.) Units per 100 Seconds
same,Rate of Oxidation of NADH2,"[1]; NDGA solution aged 140 minutes, Experiment 2",.014 Optical Density (O.D.) Units per 100 Seconds
same,Rate of Oxidation of NADH2,"[1]; NDGA solution aged 175 minutes, Experiment 1",.012 Optical Density (O.D.) Units per 100 Seconds
same,Rate of Oxidation of NADH2,"[1]; NDGA solution aged 180 minutes, Experiment 3",.012 Optical Density (O.D.) Units per 100 Seconds
same,Rate of Oxidation of NADH2,"[1]; NDGA solution aged 215 minutes, Experiment 2",.014 Optical Density (O.D.) Units per 100 Seconds
same,Rate of Oxidation of NADH2,"[1]; NDGA solution aged 240 minutes, Experiment 3",.012 Optical Density (O.D.) Units per 100 Seconds
same,Rate of Oxidation of NADH2,"[1]; NDGA solution aged 270 minutes, Experiment 1",.011 Optical Density (O.D.) Units per 100 Seconds
same,Rate of Oxidation of NADH2,"[1]; NDGA solution aged 285 minutes, Experiment 2",.014 Optical Density (O.D.) Units per 100 Seconds
same,Rate of Oxidation of NADH2,"[1]; NDGA solution aged 323 minutes, Experiment 1",.011 Optical Density (O.D.) Units per 100 Seconds
same,Rate of Oxidation of NADH2,"[1]; NDGA solution aged 380 minutes, Experiment 3",.011 Optical Density (O.D.) Units per 100 Seconds
same,Rate of Oxidation of NADH2,"[1]; NDGA solution aged 440 minutes, Experiment 3",.011 Optical Density (O.D.) Units per 100 Seconds
same,Rate of Oxidation of NADH2,"[1]; NDGA solution aged 485 minutes, Experiment 3",.010 Optical Density (O.D.) Units per 100 Seconds
same,inhibition of pig heart D-amino acid oxidase,[2],99%
same,anti-caries effect,caries,effective experimental anti-caries agent
same,inhibition of aerobic and anaerobic glycolysis,human whole saliva,markedly inhibited
same,inhibition of endogenous and glucose dependent respiration,human whole saliva,nearly as effectively inhibited
same,inhibition of jack bean urease,jack bean urease,99%
same,inhibition of squash ascorbic acid oxidase,[3],100%
same,inhibition of turnip peroxidase,turnip peroxidase,71%
same,inhibition of the same metabolic activities in cancer cells,[4],similarly inhibited
same,inhibition of yeast alcohol dehydrogenase,[5],71%
same,inhibition of plant lipoxidase-catalyzed oxidation and auto-oxidation of linoleate,plant lipoxidase,well-known inhibitor
same,solubility,[6]; dilute hydrochloric acid,insoluble
same,solubility,"[6]; ethanol, methanol, ether, acetone, glycerol, propylene glycol, dilute alkali",soluble
same,solubility,[6]; hot water and chloroform,slightly soluble
same,inhibition of rat liver cyclophorase,rat liver cyclophorase,93% and 70%
